From patent US10519169B2, “3-(1H-pyrrolo[2,3-C]pyridin-2-yl)-1 H-pyrazolo[4,3-B]pyridines and therapeutic uses thereof” (Samumed, LLC, priority 2015, dated 2019)

Legend:
Assay type in all cases: cell-based
[1] = system: primary human fibroblasts derived from IPF patients (LL29 cells) treated with TGF-β1; experiment: Inhibition of fibrotic process, αSMA staining in TGF-β1 treated LL29 fibroblasts; conditions: Fibroblast, 96 h, TGF-β1 20 ng/mL, 4 days, % cells positive for αSMA
Text: Representative compounds were screened using primary human fibroblasts (derived from IPF patients) treated with TGF-β1 to determine their ability to inhibit the fibrotic process.
Primary human fibroblasts derived from IPF patients (LL29 cells) [^1Xiaoqiu Liu, et. al., “Fibrotic Lung Fibroblasts Show Blunted Inhibition by cAMP Due to Deficient cAMP Response Element-Binding Protein Phosphorylation”, Journal of Pharmacology and Experimental Therapeutics (2005), 315(2), 678-687; ^2Watts, K. L., et. al., “RhoA signaling modulates cyclin D1 expression in human lung fibroblasts; implications for idiopathic pulmonary fibrosis”, Respiratory Research (2006), 7(1), 88] were obtained from American Type Culture Collection (ATCC) and expanded in F12 medium supplemented with 15% Fetal Bovine Serum and Penicillin/Streptomycin.
Each compound was dissolved in DMSO as a 10 mM stock and used to prepare compound source plates. Serial dilution (1:2, 11-point dose-response curves from […] to […]) and compound transfer was performed using the ECHO 550 (Labcyte, Sunnyvale, Calif.) into 384-well clear bottom assay plates (Greiner Bio-One) with appropriate DMSO backfill for a final DMSO concentration of 0.1%. LL29 cells are plated at 1,500 cells/well in 80 μL/well F12 medium supplemented with 1% Fetal Bovine Serum. One hour after addition of the cells, TGF-β1 (Peprotech; 20 ng/mL) was added to the plates to induce fibrosis (ref. 1 and 2 above). Wells treated with TGF-β1 and containing DMSO were used as controls. Cells were incubated at 37° C. and 5% CO2 for 4 days. Following incubation for 4 days, SYTOX green nucleic acid stain (Life Technologies [Thermo Fisher Scientific]) was added to the wells at a final concentration of 1 μM and incubated at room temperature for 30 min. Cells were then fixed using 4% formaldehyde (Electron Microscopy Sciences), washed 3 times with PBS followed by blocking and permeabilization using 3% Bovine Serum Albumin (BSA; Sigma) and 0.3% Triton X-100 (Sigma) in PBS. Cells were then stained with antibody specific to α-smooth muscle actin (aSMA; Abcam) (ref. 1 and 2 above) in 3% Bovine Serum Albumin (BSA; Sigma) and 0.3% Triton X-100 (Sigma) in PBS, and incubated overnight at 4° C. Cells were then washed 3 times with PBS, followed by incubation with Alexa Flor-647 conjugated secondary antibody (Life Technologies [Thermo Fisher Scientific]) and DAPI at room temperature for 1 hour. Cells were then washed 3 times with PBS and plates were sealed for imaging. aSMA staining was imaged by excitation at 630 nm and emission at 665 nm and quantified using the Compartmental Analysis program on the CellInsight CX5 (Thermo Scientific). Dead or apoptotic cells were excluded from analysis based on positive SYTOX green staining. % of total cells positive for aSMA were counted in each well and normalized to the average of 11 wells treated with TGF-β1 on the same plate using Dotmatics' Studies Software. The normalized averages (fold change over untreated) of 3 replicate wells for each compound concentration were used to create dose-responses curves and EC50 values were calculated using non-linear regression curve fit in the Dotmatics' Studies Software. For EC50 of >10 μM, the percent inhibition at 10 μM is provided.

[2] = system: IL-6; experiment: IL-6 inhibition in LPS-stimulated THP-1 cells (HTRF); conditions: Homo sapiens; for EC50: LPS 500 ng/mL, 22 hours, IL6 HTRF
Experimental: Human monocyte cell line (THP-1 cells; Catalog # TIB-202, ATCC, Manassas, Va.) were cultured in Roswell Park Memorial Institute (RPMI) 1640 Medium (Catalog #21870-100, Buffalo, N.Y.) with 1% L-glutamine, 1% HEPES, 1% Sodium Pyruvate, 2% Sodium Bicarbonate supplemented with 100 units/mL penicillin, 50 μg/mL streptomycin, 2-mercaptoethanol (0.05 mM) [basal medium] and 10% fetal bovine serum (Catalog #16140089, Life Technologies, Carlsbad, Calif.) at 37° C. and 5% CO2.
THP-1 cells were cultured in basal media with 1% FBS for 24 hours before the start of the assay. Each compound was dissolved in DMSO as a 10 mM stock and used to prepare compound source plates. Serial dilution (1:3, 10-point dose-response curves starting from 10 μM) and compound transfer was performed using the ECHO 550 (Labcyte, Sunnyvale, Calif.) into 384-well white low volume assay plates (Greiner Bio-One) with appropriate DMSO backfill for a final DMSO concentration of 0.1%. THP-1 cells were plated at 5000 cells/well in the 384-well plates and incubated at 37° C. for 2 h. 500 ng/mL of LPS was added after 2 hours and cells were incubated for another 22 hours at 37° C. Plates were spun in a centrifuge for 1 minute at […] and a mixture of anti-IL6 XL665, and anti-IL6 Cryptate diluted in reconstitution buffer (Cisbio Inc.) was added to each well. Following incubation for 3 hrs at room temperature, Homogeneous Time-Resolved Fluorescence (HTRF) was measured using the Envision (Perkin Elmer) at 665 nm and […]. The ratio of fluorescence at 665 nm to 620 nm was used as a readout for IL6 quantification. All samples were processed in duplicate. Readings were normalized to DMSO treated cells and normalized activities were utilized for EC50 calculations using the dose-response log (inhibitor) vs. response-variable slope (four parameters) nonlinear regression feature available in GraphPad Prism 5.0 (or Dotmatics). For EC50 of >10 μM, the percent inhibition at […] is provided.

[3] = system: SW480 colon cancer cells; experiment: Cell viability assay (CellTiter-Blue), SW480 cells; conditions: Homo sapiens, 96 h, four days, CellTiter-Blue
Experimental: Representative compounds were screened using the following assay procedure to assess the effect on cell viability as described below.
Each compound was dissolved in DMSO as a 10 mM stock and used to prepare compound source plates. Serial dilution (1:3, 8-point dose-response curves from […]) and compound transfer was performed using the ECHO 550 (Labcyte, Sunnyvale, Calif.) into 96-well clear bottom, black-walled plates (Corning-Costar).
Approximately 2×10^3 SW480 colon cancer cells were seeded into each well and allowed to incubate in the presence or absence of compound for four days at 37° C./5% CO2. Eight replicates of DMSO-treated cells served as controls and cells treated with compound were performed in duplicate.
After incubation, 20 μL of CellTiter-Blue (Promega) was added to each well allowed to incubate for approximately 3 hours. This reagent was a buffered solution which contains resazurin, metabolically active cells were able to reduce rezarurin (blue) into resorufin (pink) which was highly fluorescent. This measured fluorescence was used as a readout for cell viability.
After incubation, the plates were read at Ex 560 nm Em 590 nm (Cytation 3, BioTek). Dose-response curves were generated and EC50 concentration values were calculated using non-linear regression curve fit in the GraphPad Prism (San Diego, Calif.) or Dotmatics' Studies Software (Bishops Stortford, UK). For EC50 of >10 μM, the percent inhibition at 10 μM is provided.

[4] = system: Wnt activity (Sp5-Luc reporter, TCF/LEF binding sites) in SW480 colon carcinoma cells; experiment: Wnt activity screening assay, Sp5-Luc reporter gene in SW480 cells; conditions: Homo sapiens, overnight incubation
Text: The screening assay for Wnt activity is described as follows. Reporter cell lines can be generated by stably transducing cancer cell lines (e.g., colon cancer) or primary cells (e.g., IEC-6 intestinal cells) with a lentiviral construct that includes a Wnt-responsive promoter driving expression of the firefly luciferase gene.
SW480 colon carcinoma cells were transduced with a lentiviral vector expressing luciferase with a human Sp5 promoter consisting of a sequence of eight TCF/LEF binding sites. SW480 cells stably expressing the Sp5-Luc reporter gene and a hygromycin resistance gene were selected by treatment with 150 μg/mL of hygromycin for 7 days. These stably transduced SW480 cells were expanded in cell culture and used for all further screening activities. Each compound was dissolved in DMSO as a 10 mM stock and used to prepare compound source plates. Serial dilution (1:3, 10-point dose-response curves starting from 10 μM) and compound transfer was performed using the ECHO 550 (Labcyte, Sunnyvale, Calif.) into 384-well white solid bottom assay plates (Greiner Bio-One) with appropriate DMSO backfill for a final DMSO concentration of 0.1%. For Sp5-Luc reporter gene assays, the cells were plated at 4,000 cells/well in 384-well plates with medium containing 1% fetal bovine serum and incubated overnight at 37° C. and 5% CO2. Following incubation, 20 μl of BrightGlo luminescence reagent (Promega) was added to each well of the 384-well assay plates. The plates were placed on an orbital shaker for 2 min and then luminescence was quantified using the Envision (Perkin Elmer) plate reader. Readings were normalized to DMSO only treated cells, and normalized activities were utilized for EC50 calculations using the dose-response log (inhibitor) vs. response-variable slope (four parameters) nonlinear regression feature available in GraphPad Prism 5.0 (or Dotmatics). For EC50 of >10 μM, the percent inhibition at 10 μM is provided.

| SMILES | EC50 [2] | EC50 [3] | EC50 [4] | EC50 [1] | inhibition at 10 µM ([2]; given for EC50 >10 μM, LPS, IL6, at 10 M [sic], read-out: percent inhibition at 10 M) |
| --- | --- | --- | --- | --- | --- |
| Fc1cccc(-c2cncc3[nH]c(-c4n[nH]c5ccc(-c6cncc(OCc7ccccc7)c6)nc45)cc23)c1 [Compound 518, 5-(5-(Benzyloxy)pyridin-3-yl)-3-(4-(3-fluorophenyl)-1H-pyrrolo[2,3-c]pyridin-2-yl)-1H-pyrazolo[4,3-b]pyridine] | > 10000 nM | 1120 nM | 1280 nM | 1200 nM | 35.5% |
| c1ncc(-c2ccc3[nH]nc(-c4cc5c(N6CCCCC6)cncc5[nH]4)c3n2)cc1OC1CCCCC1 [Compound 607, 5-(5-(Cyclohexyloxy)pyridin-3-yl)-3-(4-(piperidin-1-yl)-1H-pyrrolo[2,3-c]pyridin-2-yl)-1H-pyrazolo[4,3-b]pyridine] | 2360 nM | 498 nM | 3350 nM | 199 nM | – |

These reach a lower EC50 [2]. Values come first.

| EC50 [2] | EC50 [3] | EC50 [4] | SMILES | EC50 [1] | inhibition at 10 µM ([2]; given for EC50 >10 μM, LPS, IL6, at 10 M [sic], read-out: percent inhibition at 10 M) |
| --- | --- | --- | --- | --- | --- |
| 873 nM | 3580 nM | 8450 nM | CCNCc1cncc(-c2ccc3[nH]nc(-c4cc5ccncc5[nH]4)c3n2)c1 [Compound 258, N-((5-(3-(1H-Pyrrolo[2,3-c]pyridin-2-yl)-1H-pyrazolo[4,3-b]pyridin-5-yl)pyridin-3-yl)methyl)ethanamine] | 6630 nM | – |
| 228 nM | 1210 nM | 1970 nM | CC(C)(C)C(=O)Nc1cncc(-c2ccc3[nH]nc(-c4cc5c(-c6cccc(F)c6)cncc5[nH]4)c3n2)c1 [Compound 8, N-(5-(3-(4-(3-Fluorophenyl)-1H-pyrrolo[2,3-c]pyridin-2-yl)-1H-pyrazolo [4,3-b]pyridin-5-yl)pyridin-3-yl)pivalamide] | 2310 nM | – |
| 118 nM | 4250 nM | 4070 nM | Cc1ccncc1-c1ccc2[nH]nc(-c3cc4c(-c5cccs5)cncc4[nH]3)c2n1 [Compound 341, 5-(4-Methylpyridin-3-yl)-3-(4-(thiophen-2-yl)-1H-pyrrolo[2,3-c]pyridin-2-yl)-1H-pyrazolo[4,3-b]pyridine] | 521 nM | – |
| 1490 nM | 1480 nM | 3350 nM | CN(C)CCOc1cncc(-c2ccc3[nH]nc(-c4cc5ccncc5[nH]4)c3n2)c1 [Compound 659, 2-((5-(3-(1H-Pyrrolo[2,3-c]pyridin-2-yl)-1H-pyrazolo[4,3-b]pyridin-5-yl)pyridin-3-yl)oxy)-N,N-dimethylethan-1-amine] | 4130 nM | – |
